No end group written: not given here.
Legend:
[1] = tested on: Staphylococcus aureus (SA, ATCC 6538); test: Antibacterial activity of synthetic NB_AMPs, microtiter plate method (MIC); format: cell-based
Experimental: (§1) The cell-free supernatant of all E. coli DH5α strains containing cloned AMPs was collected after 24 h of culture and filtered through a 0.2 μm syringe (mixed cellulose esters (MCE), Merck, Darmstadt, Germany), and finally the cell-free supernatant was used for the evaluation of antibacterial activity. The cell-free supernatant from the E. coli DH5α, harboring only the plasmid vector without the NB_AMP genes, was confirmed as a negative control to have very little effect on antibacterial activities. The synthesized AMPs were suspended at a concentration of 10 mg/mL in distilled water and then used for antibacterial activity. The antibacterial activity against the Gram-negative bacterium, E. coli (EC; ATCC 10536), and the Gram-positive bacterium, Staphylococcus aureus (SA, ATCC 6538), was analyzed using the microtiter plate method and expressed as minimal inhibition concentration (MIC); the bacteria pre-cultured overnight (O/N) were cultured at 10^6 CFU/mL with the cell-free supernatant or the synthetic peptides, the reaction mixtures were added to the microtiter plate, and finally the reactivity was observed by O/N culture at 37 °C.

E. coli (EC; ATCC 10536) = test: as above; format: cell-based, Escherichia coli
Experimental: as §1

[2] = synthetic peptides, microtiter plate, 10^6 CFU/mL, O/N culture at 37 °C, peptide stock 10 mg/mL in distilled water

Sequence | MIC50 against S. aureus [1, 2] [µg/mL] | MIC50 against E. coli (E. coli (EC; ATCC 10536); [2]) [µg/mL] | MIC50 against E. coli (E. coli (EC; ATCC 10536); ATCC 10536, 24 h) [µg/mL] | MIC50 against S. aureus ([1]; ATCC 6538, 24 h) [µg/mL]
NYKLLSNSLNILL [NB_AMP8] | 8360 | – | – | –
KKLAAKEKAAAAKEKEAAKKAAAKEKK [NB_AMP9] | 5050 | – | – | –
GLQKYLSWVKNKRL [NB_AMP2] | 230 | 170 | – | –
FFGRFKKEK [NB_AMP10] | – | – | 2600 | 2110
NTLSSIASLLKK [NB_AMP5] | – | – | 10210 | 3240
GQYNQGGYGSQGGDYGQGGYGQGSMGGGYG [NB_AMP6] | 5830 | 9430 | – | –
WQEIKNSLEDLSDSI [NB_AMP4] | 2950 | 4960 | – | –
KGAKKAGKAVKKTVKK [NB_AMP3] | 2880 | 3430 | – | –

Reference: PMC11941926, “Identification of Antimicrobial Peptides from Nibribacter radioresistens, a UV and Gamma Radiation Tolerant Bacterium” (Genes, 2025)
